Series [1] has as its system Mycobacterium tuberculosis (strain H37Rv). Briefly: LORA minimum inhibitory concentration assay (low-oxygen/non-replicating). As to conditions: M.tb H37Rv, 90% inhibition of growth.
For series [2], the system named is VERO green monkey kidney cells. Briefly: VERO mammalian cell toxicity assay. The class given is cell-based. As to conditions: inhibition of growth of VERO green monkey kidney epithelial cells; for IC50: Chlorocebus sabaeus.
Series [3] concerns Mycobacterium tuberculosis (strain H37Rv). Briefly: MABA minimum inhibitory concentration assay (aerobic/replicating). The class given is cell-based. As to conditions: M.tb H37Rv; for MIC90: Mycobacterium tuberculosis; for anti-mycobacterial activity in words: MABA/LORA.
A short description of series [4]: Microsomal stability, mouse liver microsomes. The class given is in vitro ADME. As to conditions: for CLint scaled at 1 μM / half-life at 1 μM: CD-1, mouse, microsomes, pH 7.4; for microsomal CLint at 1 μM: CD-1, pH 7.4, mouse liver microsomes, read-out: MLM Clint(mic). The procedure: (§1) Assays were performed by WuXi AppTec (Shanghai) Co., Ltd. The test compounds (Table 4) (at 1 μM) were incubated at 37 °C with liver microsomes from human or CD-1 mice in the presence of a NADPH regenerating system and phosphate buffer (100 mM, pH 7.4) at 0.5 mg/mL microsomal protein (the positive controls were testosterone, propafenone, and diclofenac). Samples were removed at time intervals of 0, 5, 10, 20, 30, and 60 min and immediately mixed with cold CH3CN (containing 0.1 μg/mL of tolbutamide as an internal standard) and then centrifuged prior to analysis by LCMS/MS.

The nature of series [5]: Microsomal stability, human liver microsomes. Type of series: in vitro ADME. The settings on record: pH 7.4; for microsomal CLint at 1 μM: human liver microsomes, read-out: HLM Clint(mic). The procedure:
as §1
A general note: Liver microsomes are a subcellular fraction often used to study metabolism.

[6] abbreviates: aerobic/replicating, 90% inhibition of growth.
[7] abbreviates: human/mouse liver microsomes not distinguished, read-out: T½ values (microsomal stability).

These results are taken from paper PMC9506485, “Synthesis and Structure–Activity Relationships for the Anti-Mycobacterial Activity of 3-Phenyl-N-(Pyridin-2-ylmethyl)Pyrazolo[1,5-a]Pyrimidin-7-Amines” (Pharmaceuticals, 2022).

By IC50 is commonly meant the concentration that gives 50% inhibition. What is called MIC90 is an inhibitory concentration at the 90% level, which refers to growth in some studies and to a panel of isolates in others. A word on the melting point: it is the temperature of the solid-liquid transition. For orientation: CLint scaled means the capacity of the preparation to metabolise the compound, expressed as a volume cleared per time.

In brackets after ≈: the same amount, converted by molar mass.

In the case of `Fc1ccccc1-c1cnn2c(NCc3ccccn3)cc(-c3ccccc3)nc12` [Compound 11, 3-(2-Fluorophenyl)-5-phenyl-N-(pyridin-2-ylmethyl)pyrazolo[1,5-a]pyrimidin-7-amine], the melting point lay in the range of 176 to 178 °C. Also, the “MIC90 LORA” value in series [1] is given as more than 32 µg/mL. This molecule also registered an IC50 in series [2] of more than 32 µg/mL. This molecule yielded an MIC90 in series [3] (setting [6]) of more than 32 µg/mL.

`COc1ccccc1-c1cnn2c(NCc3ccccn3)cc(-c3ccccc3)nc12` [Compound 12, 3-(2-Methoxyphenyl)-5-phenyl-N-(pyridin-2-ylmethyl)pyrazolo[1,5-a]pyrimidin-7-amine] returned a melting point of 169 to 171 °C. In series [1], the “MIC90 LORA” value was more than 32 µg/mL. The IC50 in series [2] was more than 32 µg/mL. The molecule also gave an MIC90 in series [3] (setting [6]) of more than 32 µg/mL.

Regarding `FC(F)(F)c1ccccc1-c1cnn2c(NCc3ccccn3)cc(-c3ccccc3)nc12` [Compound 13, 5-Phenyl-N-(pyridin-2-ylmethyl)-3-(2-(trifluoromethyl)phenyl)pyrazolo[1,5-a]pyrimidin-7-amine], the melting point lay in the range of 166 to 168 °C. Besides, in series [1], the “MIC90 LORA” value is on record as more than 32 µg/mL. Also, the half-inhibitory concentration (IC50) in series [2] was more than 32 µg/mL. The molecule further came in with an MIC90 in series [3] (setting [6]) of more than 32 µg/mL.

`Fc1cccc(-c2cnn3c(NCc4ccccn4)cc(-c4ccccc4)nc23)c1` [Compound 14, 3-(3-Fluorophenyl)-5-phenyl-N-(pyridin-2-ylmethyl)pyrazolo[1,5-a]pyrimidin-7-amine]: the melting point was in the range of 170 to 172 °C. Also, the “MIC90 LORA” value in series [1] was more than 32 µg/mL. Further, the IC50 in series [2] was more than 32 µg/mL. Moreover, in series [3] (setting [6]), the MIC90 was more than 32 µg/mL.

`Cc1cccc(-c2cnn3c(NCc4ccccn4)cc(-c4ccccc4)nc23)c1` [Compound 15, 5-Phenyl-N-(pyridin-2-ylmethyl)-3-(m-tolyl)pyrazolo[1,5-a]pyrimidin-7-amine] gave a melting point of 172 to 174 °C. Also, in series [1], the “MIC90 LORA” value was determined as 30 µg/mL (≈ 76.6 µM). Also, in series [2], the half-inhibitory concentration (IC50) is more than 32 µg/mL. Besides, in series [3] (setting [6]), the MIC90 is more than 32 µg/mL.

`COc1cccc(-c2cnn3c(NCc4ccccn4)cc(-c4ccccc4)nc23)c1` [Compound 16, 3-(3-Methoxyphenyl)-5-phenyl-N-(pyridin-2-ylmethyl)pyrazolo[1,5-a]pyrimidin-7-amine] came in with a melting point of 122 to 124 °C. Also, the “MIC90 LORA” value in series [1] was determined as 10 µg/mL (≈ 24.5 µM). For the same molecule, in series [2], the IC50 was more than 32 µg/mL. Also, in series [3] (setting [6]), the MIC90 amounted to 7.6 µg/mL (≈ 18.7 µM).

Take `FC(F)(F)c1cccc(-c2cnn3c(NCc4ccccn4)cc(-c4ccccc4)nc23)c1` [Compound 17, 5-Phenyl-N-(pyridin-2-ylmethyl)-3-(3-(trifluoromethyl)phenyl)pyrazolo[1,5-a]pyrimidin-7-amine]: the melting point was 156 to 158 °C. The “MIC90 LORA” value in series [1] is more than 32 µg/mL. In series [2], the IC50 is more than 32 µg/mL. Also, the MIC90 in series [3] (setting [6]) is more than 32 µg/mL.

For `Cc1ccc(-c2cnn3c(NCc4ccccn4)cc(-c4ccccc4)nc23)cc1` [Compound 19, 5-Phenyl-N-(pyridin-2-ylmethyl)-3-(p-tolyl)pyrazolo[1,5-a]pyrimidin-7-amine], the melting point fell in the range of 172 to 174 °C. In addition, in series [1], the “MIC90 LORA” value is listed as more than 32 µg/mL. For the same molecule, the IC50 in series [2] was more than 32 µg/mL. In addition, the “anti-mycobacterial activity in words” value in series [3] is “inactive”. The MIC90 in series [3] (setting [6]) is more than 32 µg/mL.

In turn, `FC(F)(F)c1ccc(-c2cnn3c(NCc4ccccn4)cc(-c4ccccc4)nc23)cc1` [Compound 21, 5-Phenyl-N-(pyridin-2-ylmethyl)-3-(4-(trifluoromethyl)phenyl)pyrazolo[1,5-a]pyrimidin-7-amine] gave a melting point of 188 to 190 °C. Also, in series [1], the “MIC90 LORA” value is more than 32 µg/mL. This molecule yielded an IC50 in series [2] of more than 32 µg/mL. Moreover, the “anti-mycobacterial activity in words” value in series [3] is “inactive”. The same molecule showed an MIC90 in series [3] (setting [6]) of more than 32 µg/mL.

Molecule `CCc1cc(NCc2ccccn2)n2ncc(-c3ccc(F)cc3)c2n1` [Compound 23, 5-Ethyl-3-(4-fluorophenyl)-N-(pyridin-2-ylmethyl)pyrazolo[1,5-a]pyrimidin-7-amine] had a melting point of 137 to 138 °C. Also, in series [1], the “MIC90 LORA” value came to 0.45 µg/mL (≈ 1.3 µM). 14.1 µg/mL (≈ 40.6 µM) corresponded to half-maximal inhibition in series [2] (IC50). Further, the MIC90 in series [3] (setting [6]) is 1.4 µg/mL (≈ 4.03 µM).

On to `Fc1ccc(-c2cnn3c(NCc4ccccn4)cc(C4=CCCC4)nc23)cc1` [Compound 26, 5-(Cyclopent-1-en-1-yl)-3-(4-fluorophenyl)-N-(pyridin-2-ylmethyl)pyrazolo[1,5-a]pyrimidin-7-amine], for which the CLint scaled at 1 μM in series [4] amounted to 140 mL/min/kg; in series [5] (human, microsomes), 32 mL/min/kg. Besides, the half-life at 1 μM in series [4] is 39 min; in series [5] (human, microsomes) it was 39 min; in series [5] (setting [7]), less than 85 min. The microsomal CLint at 1 μM in series [4] and in series [5] was 35 µL/min/mg in each case. Moreover, the “MIC90 LORA” value in series [1] was found to be 0.23 µg/mL (≈ 0.597 µM). The same molecule registered an IC50 in series [2] of more than 32 µg/mL. Moreover, the MIC90 in series [3] (setting [6]) worked out at 0.89 µg/mL (≈ 2.31 µM).

Turning to `Fc1ccc(-c2cnn3c(NCc4ccccn4)cc(C4=CCCCC4)nc23)cc1` [Compound 27, 5-(Cyclohex-1-en-1-yl)-3-(4-fluorophenyl)-N-(pyridin-2-ylmethyl)pyrazolo[1,5-a]pyrimidin-7-amine], the intrinsic clearance (CLint scaled) at 1 μM was determined as 120 mL/min/kg in series [4] and 17 mL/min/kg in series [5] (human, microsomes). In addition, the half-life at 1 μM in series [4] was 49 min; in series [5] (human, microsomes), 75 min; in series [5] (setting [7]), less than 85 min. Moreover, the microsomal CLint at 1 μM in series [4] was found to be 30 µL/min/mg; in series [5], 19 µL/min/mg. In series [1], the “MIC90 LORA” value worked out at 0.44 µg/mL (≈ 1.1 µM). Also, the IC50 in series [2] is more than 32 µg/mL. For the same molecule, the MIC90 in series [3] (setting [6]) came out at 0.62 µg/mL (≈ 1.55 µM).

Molecule `Fc1ccc(-c2cnn3c(NCc4cccc(F)n4)cc(-c4ccccc4)nc23)cc1` [Compound 45, 3-(4-Fluorophenyl)-N-((6-fluoropyridin-2-yl)methyl)-5-phenylpyrazolo[1,5-a]pyrimidin-7-amine] came in with a melting point of 196 to 198 °C. Also, the “MIC90 LORA” value in series [1] is recorded as more than 32 µg/mL. Further, the IC50 in series [2] is more than 32 µg/mL. Also, the MIC90 in series [3] (setting [6]) is more than 32 µg/mL.

In the case of `Fc1ccc(-c2cnn3c(NCc4cccc(Br)n4)cc(-c4ccccc4)nc23)cc1` [Compound 46, N-((6-Bromopyridin-2-yl)methyl)-3-(4-fluorophenyl)-5-phenylpyrazolo[1,5-a]pyrimidin-7-amine], the melting point fell in the range of 160 to 161 °C. In series [1], the “MIC90 LORA” value is on record as more than 32 µg/mL. The half-inhibitory concentration (IC50) in series [2] is more than 32 µg/mL. In series [3] (setting [6]), this molecule displayed an MIC90 of more than 32 µg/mL.

In turn, `Cc1cccc(CNc2cc(-c3ccccc3)nc3c(-c4ccc(F)cc4)cnn23)n1` [Compound 47, 3-(4-Fluorophenyl)-N-((6-methylpyridin-2-yl)methyl)-5-phenylpyrazolo[1,5-a]pyrimidin-7-amine] gave a melting point of 177 to 180 °C. In addition, in series [1], the “MIC90 LORA” value is on record as more than 32 µg/mL. In addition, the IC50 in series [2] is more than 32 µg/mL. The MIC90 in series [3] (setting [6]) was more than 32 µg/mL.

`COc1cccc(CNc2cc(-c3ccccc3)nc3c(-c4ccc(F)cc4)cnn23)n1` [Compound 48, 3-(4-Fluorophenyl)-N-((6-methoxypyridin-2-yl)methyl)-5-phenylpyrazolo[1,5-a]pyrimidin-7-amine] returned a melting point of 163 to 165 °C. Further, the “MIC90 LORA” value in series [1] is reported as more than 32 µg/mL. Moreover, the IC50 in series [2] is more than 32 µg/mL. The molecule also yielded an MIC90 in series [3] (setting [6]) of more than 32 µg/mL.

Turning to `CN(C)c1cccc(CNc2cc(-c3ccccc3)nc3c(-c4ccc(F)cc4)cnn23)n1` [Compound 49, N-((6-(Dimethylamino)pyridin-2-yl)methyl)-3-(4-fluorophenyl)-5-phenylpyrazolo[1,5-a]pyrimidin-7-amine], the melting point was in the range of 151 to 153 °C. Further, in series [1], the “MIC90 LORA” value turned out to be 0.40 µg/mL (≈ 0.912 µM). The molecule also came in with an IC50 in series [2] of more than 32 µg/mL. Also, in series [3] (setting [6]), the MIC90 turned out to be 1.39 µg/mL (≈ 3.17 µM).

Take `CN(C)CC#Cc1ccc(CNc2cc(-c3ccccc3)nc3c(-c4ccc(F)cc4)cnn23)nc1` [Compound 55, N-((5-(3-(Dimethylamino)prop-1-yn-1-yl)pyridin-2-yl)methyl)-3-(4-fluorophenyl)-5-phenylpyrazolo[1,5-a]pyrimidin-7-amine]: in series [4], the CLint scaled at 1 μM is 121 mL/min/kg, the half-life at 1 μM stood at 45.4 min and the microsomal CLint at 1 μM amounted to 31 µL/min/mg. Moreover, in series [5] (human, microsomes), the CLint scaled at 1 μM is less than 8.6 mL/min/kg and the half-life at 1 μM was more than 145 min. For the same molecule, in series [5], the microsomal CLint at 1 μM was less than 9.6 µL/min/mg. For the same molecule, in series [1], the “MIC90 LORA” value was determined as 5.5 µg/mL (≈ 11.5 µM). For the same molecule, the concentration for half-maximal inhibition (IC50) in series [2] is more than 32 µg/mL. Further, the MIC90 in series [3] (setting [6]) is 1.9 µg/mL (≈ 3.99 µM).

Take `CN(C)CCOc1ccc(CNc2cc(-c3ccccc3)nc3c(-c4ccc(F)cc4)cnn23)nc1` [Compound 57, N-((5-(2-(Dimethylamino)ethoxy)pyridin-2-yl)methyl)-3-(4-fluorophenyl)-5-phenylpyrazolo[1,5-a]pyrimidin-7-amine]: the “MIC90 LORA” value in series [1] came out at 1.9 µg/mL (≈ 3.94 µM). The same molecule gave a half-maximal inhibitory concentration (IC50) in series [2] of 24 µg/mL (≈ 49.7 µM). Also, in series [3] (setting [6]), the MIC90 was 3.6 µg/mL (≈ 7.46 µM).

As to “N-((4-(2-(Dimethylamino)ethoxy)pyridin-2-yl)methyl)-3-(4-fluorophenyl)-5-phenylpyrazolo[1,5-a]pyrimidin-7-amine [Compound 58]”, the “MIC90 LORA” value in series [1] is recorded as 4.1 µg/mL. The “IC50 VERO” value in series [2] is more than 32 µg/mL. Also, in series [3] (setting [6]), the “MIC90 MABA” value amounted to 4.7 µg/mL.
